From PMC6018403 (Frontiers in Pharmacology, 2018)
“Also recorded” adds a separate entry of the source.

Legend:
Caco-2 cell monolayer = Caco-2 cell monolayer permeability test (bidirectional transport of berberine); type: in vitro ADME, Human; settings: BER 5 μM
Experimental: The final concentration of GQD, GQD−GC, and Huang-Lian water extracts were 32, 28, and 6 μg/mL, respectively. […]
containing glucose (25 mM) and HEPES (10 mM). The final concentration of berberine was 5 µM. The final concentration of DMSO was below 1% (v/v). […]
inducer of Caco-2 cells, respectively. For the inhibitor experiments, the Caco-2 cells were cultivated in DMEM until the 21st day. After removal of the medium, the cells were incubated for 30 minutes with HBSS containing 5 µM of verapamil. For the inducer experiments, the cells were cultivated in DMEM until the 18th day, and then […]
was removed on the 21st day, and the cells were then incubated for 30 min with HBSS.
Berberine and glycyrrhizic acid were added to the system following HBSS incubation.
For all bidirectional transport assays, samples (300 µL) were collected after 30, 60, 90, […]
with an equal volume of HBSS. The samples were freeze-dried and then dissolved in 300 µL of methanol. The solutions were filtered through 0.22-µm membranes before […]
3. Inhibitor and inducer experiments […]
respectively. For the inhibition experiments, Caco-2 cells were cultivated in DMEM until the 21st day. After removal of the medium, the cells were incubated for 30 minutes with HBSS containing verapamil (5 µM). For induction experiments, the cells were cultivated in DMEM until the 18th day, and then cultivated in DMEM […]
The medium was removed on the 21st day, and the cells were then incubated for 30 min with HBSS. Berberine and glycyrrhizic acid were added to the system following HBSS incubation.

in vivo = test: in vivo; parameters: species or system Sprague-Dawley rats; settings: male, Sprague-Dawley, rat, po
Experimental: For the PK study of berberine and glycyrrhizic acid, rats were randomly divided into four groups (n = 8 for each group) before oral administration. Two groups were respectively treated with 59.4 mg/kg of berberine and 84.8 mg/kg of glycyrrhizic acid; the third group was treated with 59.4 mg/kg of berberine and 2.36 g/kg of licorice water decoction (0.5 g/mL); and the last group received 59.4 mg/kg of berberine and 84.8 mg/kg of glycyrrhizic acid. The dosage of single compounds were calculated according to their contents in the administrated GQD extract. Sample collection were the same as described for GQD. […] The plasma samples were stored at −80°C. Samples were prepared for LC/MS/MS analysis as described in our previous study (Qiao et al., [2012]), as described in Supplemental Data. LC/MS/MS calibration and quantitation data were processed with Xcalibur 2.0.7 software (ThermoFisher). The maximal plasma concentrations (Cmax) and their time of occurrence (Tmax) were obtained directly from the measured data. Other pharmacokinetic parameters were calculated by non-compartment or compartment models using WinNonlin® software (v6.1, Pharsight). Unless otherwise stated, results were expressed as the mean ± SD. Statistical significance in differences of the means was determined by Student's t–test, with a significance level of P < 0.05.

db/db mice = test: Evaluation of anti-diabetic effects in db/db mice; type: in vivo; settings: oral, 4 weeks; for anti-diabetic effects: BER 50 mg/kg/d, GLY 80 mg/kg/d alone, 50 or 80 mg/kg/d with BER
Experimental: Eight-week-old male db/db mice (30–35 g) were used, and the details were described in Supplemental Data. The mice were randomly divided into eight groups. Mice were orally administered with metformin (100 mg/kg/d, n = 6), berberine (50 mg/kg/d, n = 6), glycyrrhizic acid (80 mg/kg/d, n = 6), berberine (50 mg/kg/d) combined with low-dose of glycyrrhizic acid (50 mg/kg/d, n = 6), berberine (50 mg/kg/d) combined with high-dose of glycyrrhizic acid (80 mg/kg/d, n = 6), berberine (50 mg/kg/d) combined with Gan-Cao (2.2 g/kg/d, n = 7), and GQD (18.2 g/kg/d, n = 7) for 4 weeks. For the control group, the […] were administered with an equal volume of water. On day 28, after fasted for 12 h, retro-orbital blood samples were collected, stand for 1 h, and then centrifuged (6,000 rpm, 4°C) for 20 min to obtain serum. Biochemical indicators such as blood glucose and insulin were determined on a Mindray BS-800 analyzer (Mindray Bio-Medical Electronics Co.).
Herbal materials and extracts.
The four component herbs, Puerariae Lobatae Radix (Ge-Gen, GG), Scutellariae Radix (Huang-Qin, HQ), Coptidis Rhizoma (Huang-Lian, HL), and Glycyrrhizae Radix et Rhizoma Praeparata cum Melle (Gan-Cao, GC) were purchased from Tianheng Pharmacy. GQD was prepared by decocting the four component herbs […]
of water for three times (1.5 h, 1.5 h, 0.5 h) to obtain the extracts, followed by a pre-extraction of Ge-Gen using 200 mL of water for 0.5 h. The decoctions were combined, filtered, and concentrated in vacuum at 50 °C. GQD-GC was prepared using the same procedure, except that Gan-Cao was removed from the formula. Final concentration of the GQD-GC extract was equivalent to 1.0 g of the crude drugs per mL. For single herb extracts, the herbs were decocted in 8-fold volume of water for three times (1.5 h, 1.5 h, 0.5 h) and then concentrated. […]
For anti-diabetic study, Eight-week-old male db/db mice (30–35 g) were purchased from Card Vince Laboratory animal Co., Ltd. The mice were bred in a cage (318 × 202 × 135 mm) in a breeding room at 25 °C, 60 ± 5% humidity, and a 12-h dark-light […]
On day 28, db/db mice were fasted for 12 h, and blood was collected and centrifuged to obtain serum for insulin and biochemical tests. After that, 150 µL of plasma was prepared by adding 150 µL of internal standard solution, 150 µL of methanol, and 300 µL of acetonitrile. The processing method was consistent with sample preparation for […]
3.1. Optimization of chromatographic separation
Different solvents (67% methanol, and 100% methanol) were compared to effectively extract both hydrophilic and hydrophobic compounds of GQD. […]
better extraction recovery for most compounds. […]

| transport rate of BER, PAB (influx, apical to basolateral) (Caco-2 cell monolayer; with GLY 5 μM) [%] | transport rate of BER, PBA (efflux) (Caco-2 cell monolayer; with GLY 5 μM) [%] | transport rate of BER, PAB (influx, apical to basolateral) (Caco-2 cell monolayer; without GLY) [%] | transport rate of BER, PBA (efflux) (Caco-2 cell monolayer; without GLY) [%] | increase of AUClast of berberine by GLY (in vivo) | Cmax (in vivo; 59.4 mg/kg) [ng/mL] | Cmax of berberine (in vivo; 59.4 mg/kg) [ng/mL] | T1/2 of berberine (in vivo; 59.4 mg/kg) [h] | half-life (in vivo; 59.4 mg/kg, T1/2 of berberine) [h] | Structure (SMILES) | anti-diabetic effects (db/db mice; listed as BER) | ALT and AST levels (liver damage) (db/db mice; serum) | anti-diabetic effects (db/db mice; listed as GLY) |
| --- | --- | --- | --- | --- | --- | --- | --- | --- | --- | --- | --- | --- |
| 84 | 10 | 59 | 34 | around 6 folds | 12.2 ± 4.85 | 117.12 ± 90.22 | 8.47 ± 2.90 | 7.53 ± 1.65 | COc1ccc2cc3[n+](cc2c1OC)CCc1cc2c(cc1-3)OCO2 [Compound 24, berberine] | confirmed its anti-diabetic activities; also recorded: significant anti-diabetic and hypolipidemic activities | decreasing |  |
|  |  |  |  |  |  |  |  |  | CC1(C)[C@@H](O[C@H]2O[C@H](C(=O)O)[C@@H](O)[C@H](O)[C@H]2O[C@@H]2O[C@H](C(=O)O)[C@@H](O)[C@H](O)[C@H]2O)CC[C@]2(C)[C@H]3C(=O)C=C4[C@@H]5C[C@@](C)(C(=O)O)CC[C@]5(C)CC[C@@]4(C)[C@]3(C)CC[C@@H]12 [Compound 36, glycyrrhizic acid] |  |  | did not show observable anti-diabetic effects |
